{"source": "patent US20240352066A1", "about": "“ANTIMICROBIAL COMPOUNDS AND THE METHOD OF USE” (priority 2021, published 2024)", "key": {"[1]": {"system": "HepG2 hepatocellular carcinoma cells", "conditions": "RMG8-8, previously published results (Green et al. 2021); cited from earlier work"}, "[2]": {"system": "3T3 fibroblasts", "experiment": "in vitro", "assay_type": "cell-based, mouse", "description": "(§1) Hepatocellular carcinoma (HepG2), mouse fibroblast (3T3), human lung (HPL1A), and human keratinocyte (HaCat) cells were cultured in Dulbecco modified eagle media (DMEM) containing 10% fetal bovine serum (FBS) and 1% penicillin, streptomycin, and glutamine (PSG) at 37° C. and 5% CO2. Cells were collected and adjusted to […] to 4×10^5 cells/mL in phenol-red free DMEM and plated (100 μL) 96 well plates. 2-fold serial dilutions of 10× peptoid (11.1 μL) were added to each well in triplicate. Water (vehicle) was used as a negative control. Plates were incubated at 37° C. in 5% CO2 for 72 hours. Thiazolyl blue tetrazolium bromide (MTT) was added to each well (5 mg/mL; 20 μL) and incubated for 3 hours. Media was removed, DMSO (100 μL) was added, and plates were incubated at 37° C. for 10 minutes. Plates were read on a SpectraMax M5 plate reader (Abs. 570 nm). The concentration of compound resulting in a 50% reduction in growth compared to control (toxicity dose 50%; TD50) was determined using GraFit. This procedure was repeated three times on separate days."}, "[3]": {"experiment": "in vitro", "assay_type": "cell-based, mouse", "conditions": "mouse, 3T3 fibroblasts", "description": "as §1"}, "[4]": {"system": "C. albicans", "assay_type": "cell-based, Candida albicans", "conditions": "24 h", "description": "2-fold serial dilutions of 100× peptoid solutions were prepared in water and 2 μL of peptoid were added to each well in triplicate. […] MIC was defined as the lowest concentration of compound preventing fungal growth. This assay was repeated 3 times on separate days with each compound."}, "[5]": {"experiment": "in vitro", "assay_type": "cell-based, human", "conditions": "human", "description": "as §1"}, "[6]": {"system": "HPL1A lung cells", "experiment": "in vitro", "assay_type": "cell-based, human", "description": "as §1"}}, "note": "Where a SMILES comes first, the peptide text is derived from it. [ ]: non-standard residue; d: D form. N(tridecyl)Gly = CCCCCCCCCCCCCNCC(=O)O; Gly(N-2-aminoethyl) = NCCNCC(=O)O; Gly(N-cHex) = O=C(O)CNC1CCCCC1; Nlys = NCCCCNCC(=O)O"}
{"compound": "CCCCCCCCCCCCCNCC(=O)N(CC(=O)N(CCCCN)CC(=O)N(CCN)CC(=O)N(CC(N)=O)C1CCCCC1)C1CCCCC1", "note": "[RMG8-8, Ntri-Ncha-Nlys-Nae-Ncha] (H-[N(tridecyl)Gly][Gly(N-cHex)][Nlys][Gly(N-2-aminoethyl)][Gly(N-cHex)]-NH2)", "values": [{"measurement": "HepG2 TD50", "setting": "[1]", "value": "189 ± 43", "unit": "µg/mL"}, {"measurement": "proteolytic degradation / protein binding in human serum", "value": "No proteolytic degradation or significant protein binding"}, {"measurement": "TD50 3T3", "setting": "[2]", "value": 59, "unit": "µg/mL"}, {"measurement": "CC50 at 72 h", "setting": "[3]", "value": "59 ± 15", "unit": "µg/mL"}, {"measurement": "MIC C. albicans", "setting": "[4]", "value": 25, "unit": "µg/mL"}, {"measurement": "CC50 at 72 h", "setting": "[5]; HPL1A lung cells", "value": "74 ± 8", "unit": "µg/mL"}, {"measurement": "CC50 at 72 h", "setting": "[5]; HaCat keratinocyte cells", "value": "54 ± 10", "unit": "µg/mL"}, {"measurement": "TD50 HPL1A", "setting": "[6]", "value": 74, "unit": "µg/mL"}]}
